# In PMC8779255, “Determining the Anticancer Activity of Sphingosine Kinase Inhibitors Containing Heteroatoms in Their Tail Structure” (Pharmaceutics, 2022):
# “Also recorded” adds a separate entry of the source.
# Assays:
# HT29 cells [1] = experiment: Annexin V-FITC/PI staining, flow cytometry; type: cell-based, human; conditions: HT29, 10 and/or 20 µM, 24 h
# Procedure: After treating HT29 and HCT116 cells with compounds 10, 11, 13 and FTY720 according to the manufacturer’s instruction, the annexin V and PI staining technique was employed to determine apoptosis in the cells. Briefly, cells (2.5 × 10^5 cells/well) were seeded in 12-well plates and treated with 10 and/or 20 µM of compounds for 24 h. Cells were collected using trypsin-EDTA and stained with annexin V-FITC dye for 15 min at room temperature, followed by PI staining for 20 min and analyzed by flow cytometer (MACSQuant Analyzer 10; Miltenyi Biotec, Bergisch Gladbach, Germany). The data was analyzed using MACSQuantify^TM version 2.8 software (Miltenyi Biotec, Bergisch Gladbach, Germany) and presented as early apoptosis, late apoptosis, or combined apoptosis percentage. Each experiment was repeated three times independently (n = 6).
# SK1 enzyme = target: T1, SK1 enzyme (Homo sapiens, UniProt Q9NYA1); experiment: SK activity assay (Adapta screening system); type: biochemical; conditions: 20 μM, Figure 5
# T1 construct: purchased Thermo Fisher Scientific
# T1 sequence (Q9NYA1 whole entry): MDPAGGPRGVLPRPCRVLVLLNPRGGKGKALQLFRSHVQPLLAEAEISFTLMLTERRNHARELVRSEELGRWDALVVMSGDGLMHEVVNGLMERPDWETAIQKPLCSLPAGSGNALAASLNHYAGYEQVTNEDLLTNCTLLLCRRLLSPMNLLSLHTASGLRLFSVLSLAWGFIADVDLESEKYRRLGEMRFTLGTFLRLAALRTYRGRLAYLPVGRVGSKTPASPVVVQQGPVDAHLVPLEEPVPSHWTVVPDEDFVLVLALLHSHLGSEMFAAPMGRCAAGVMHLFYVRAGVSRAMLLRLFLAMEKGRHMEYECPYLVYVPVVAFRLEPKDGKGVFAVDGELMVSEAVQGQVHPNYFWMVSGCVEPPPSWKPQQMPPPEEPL
# Procedure: The effect of compounds in sphingosine kinase activity was examined using the […] screening system (Thermo Fisher Scientific System, Waltham, MA, USA). The kinase inhibition ability of compounds 1-11 along with RB005 was measured with final concentration of 20 μM. […] The data were presented as percentage inhibition of SK enzyme by individual compounds.
# PP2A in HCT116 cells = target: T2, PP2A in HCT116 cells (Homo sapiens, UniProt P67775); experiment: PP2A activity assay (immunoprecipitation kit); type: cell-based; conditions: for PP2A activity (activation): HCT116, 20 µM, 24 h
# T2 construct: endogenous in cells; host or cells: HCT116
# T2 sequence (P67775 whole entry): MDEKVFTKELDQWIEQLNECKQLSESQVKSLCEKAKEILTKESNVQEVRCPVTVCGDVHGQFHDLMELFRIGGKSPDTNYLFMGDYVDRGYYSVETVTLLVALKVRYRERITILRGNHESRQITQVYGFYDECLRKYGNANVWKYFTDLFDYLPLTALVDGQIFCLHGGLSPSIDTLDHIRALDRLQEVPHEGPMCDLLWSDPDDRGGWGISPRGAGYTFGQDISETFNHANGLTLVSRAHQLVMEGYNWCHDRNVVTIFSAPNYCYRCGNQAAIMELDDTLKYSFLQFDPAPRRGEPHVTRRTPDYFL
# Procedure: The activity of PP2A was measured by using the PP2A kit according to the manufacturer’s instruction. The cell lysate was incubated with anti PP2A, C subunit antibody, and protein A agarose slurry for 2 h at 4 °C. The phosphopeptide solution (60 µL) was mixed and incubated at 30 °C for 10 min in a shaker. After a brief centrifuge, a 25 µL sample was liquated in ½ volume microplate and 100 µL malachite green phosphate detection working solution was added. After color development, absorbance was taken at 650 nm in a Multiskan GO microplate reader. A phosphate standard curve was constructed using phosphate standard, and results were calculated using this standard curve. This experiment was repeated three times (n = 6).
# [2] = tested on: AKT and ERK phosphorylation in HCT116 cells; experiment: Western blotting of pAKT and pERK; type: cell-based, human; conditions: HCT116, 20 µM
# Procedure: The cell lysate was prepared after successive treatment using mammalian protein extraction buffer (Organic buffer + 10 mM NaCl + detergent pH 7.5) mixed with 1% protease/phosphatase inhibitor cocktail; protein was quantified with BCA assay, boiled at 95 °C for 10 min by adding sample loading buffer, separated using SDS-PAGE, and transferred into methanol-activated PVDF membrane. Primary antibodies were probed overnight in PVDF membrane at 4 °C and […] with subsequent HRP anti-mouse and anti-rabbit secondary antibodies at room temperature. Then, membranes were washed with TBST buffer, and images were detected by Amersham Imager 680 (GE Healthcare; Leiden, WZ, The Netherlands) using ECL solution. Band intensities were analyzed and quantified using Image J software (version 1.53i).
# CYP1A2 = target: T3, CYP1A2 (Homo sapiens, UniProt P05177); experiment: Inhibition of CYP enzymes activity, human liver microsomes; conditions: human liver microsomes 0.25 mg/mL, 10 μM, phenacetin substrate
# T3 sequence (P05177 1-516): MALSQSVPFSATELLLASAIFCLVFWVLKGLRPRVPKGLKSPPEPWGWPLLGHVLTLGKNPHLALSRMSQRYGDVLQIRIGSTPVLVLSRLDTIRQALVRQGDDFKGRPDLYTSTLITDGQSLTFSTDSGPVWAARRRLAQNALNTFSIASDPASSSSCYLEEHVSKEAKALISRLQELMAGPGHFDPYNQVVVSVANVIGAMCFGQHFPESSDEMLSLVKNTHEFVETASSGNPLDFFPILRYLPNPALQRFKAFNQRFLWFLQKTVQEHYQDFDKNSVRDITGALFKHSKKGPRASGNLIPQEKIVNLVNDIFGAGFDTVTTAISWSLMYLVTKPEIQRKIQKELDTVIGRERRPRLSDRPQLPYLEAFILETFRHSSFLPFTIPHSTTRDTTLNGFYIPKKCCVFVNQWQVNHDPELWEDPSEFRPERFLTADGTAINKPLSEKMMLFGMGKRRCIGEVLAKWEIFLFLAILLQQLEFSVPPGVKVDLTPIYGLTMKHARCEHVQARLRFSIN
# CYP2C9 = CYP2C9 (Homo sapiens, UniProt P11712); experiment: as above; conditions: human liver microsomes 0.25 mg/mL, 10 μM, diclofenac substrate
# Chain of CYP2C9 (P11712 whole entry): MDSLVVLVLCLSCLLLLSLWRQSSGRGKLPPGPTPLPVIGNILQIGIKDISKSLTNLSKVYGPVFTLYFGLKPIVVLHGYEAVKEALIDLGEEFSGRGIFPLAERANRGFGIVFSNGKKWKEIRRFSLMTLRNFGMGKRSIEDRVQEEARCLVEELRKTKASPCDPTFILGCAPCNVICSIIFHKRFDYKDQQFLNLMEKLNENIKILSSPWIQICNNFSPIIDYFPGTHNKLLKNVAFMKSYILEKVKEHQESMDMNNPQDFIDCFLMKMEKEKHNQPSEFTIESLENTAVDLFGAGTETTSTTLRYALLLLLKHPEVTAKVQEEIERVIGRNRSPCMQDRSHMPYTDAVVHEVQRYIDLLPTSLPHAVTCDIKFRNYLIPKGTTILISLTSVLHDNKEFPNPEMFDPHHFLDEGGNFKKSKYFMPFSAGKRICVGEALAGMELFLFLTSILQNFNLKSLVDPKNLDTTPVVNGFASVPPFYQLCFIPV
# CYP2C19 = CYP2C19 (Homo sapiens, UniProt P33261); experiment: as above; conditions: human liver microsomes 0.25 mg/mL, 10 μM, S-mephenytoin substrate
# Chain of CYP2C19 (P33261 whole entry): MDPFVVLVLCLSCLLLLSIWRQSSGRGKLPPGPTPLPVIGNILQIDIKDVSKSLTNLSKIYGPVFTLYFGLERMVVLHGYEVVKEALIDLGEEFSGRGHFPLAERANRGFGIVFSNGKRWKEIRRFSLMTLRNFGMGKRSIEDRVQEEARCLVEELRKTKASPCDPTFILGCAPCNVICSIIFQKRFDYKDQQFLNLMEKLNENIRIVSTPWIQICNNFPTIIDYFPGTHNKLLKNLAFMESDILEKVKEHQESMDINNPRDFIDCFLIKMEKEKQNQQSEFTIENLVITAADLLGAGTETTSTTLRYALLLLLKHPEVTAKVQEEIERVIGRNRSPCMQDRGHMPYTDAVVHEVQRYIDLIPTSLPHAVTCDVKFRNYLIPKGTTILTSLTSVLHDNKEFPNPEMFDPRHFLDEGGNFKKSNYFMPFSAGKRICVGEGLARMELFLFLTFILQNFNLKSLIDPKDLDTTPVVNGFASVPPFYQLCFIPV
# [3] = In vitro metabolic stability in liver microsomes; type: in vitro ADME, rat
# [4] = In vitro metabolic stability in liver microsomes; type: in vitro ADME, mouse
# [5] = In vitro metabolic stability in liver microsomes
# CYP2D6 = CYP2D6 (Homo sapiens, UniProt P10635); experiment: Inhibition of CYP enzymes activity, human liver microsomes; conditions: human liver microsomes 0.25 mg/mL, 10 μM, dextromethorphan substrate
# Chain of CYP2D6 (P10635 whole entry): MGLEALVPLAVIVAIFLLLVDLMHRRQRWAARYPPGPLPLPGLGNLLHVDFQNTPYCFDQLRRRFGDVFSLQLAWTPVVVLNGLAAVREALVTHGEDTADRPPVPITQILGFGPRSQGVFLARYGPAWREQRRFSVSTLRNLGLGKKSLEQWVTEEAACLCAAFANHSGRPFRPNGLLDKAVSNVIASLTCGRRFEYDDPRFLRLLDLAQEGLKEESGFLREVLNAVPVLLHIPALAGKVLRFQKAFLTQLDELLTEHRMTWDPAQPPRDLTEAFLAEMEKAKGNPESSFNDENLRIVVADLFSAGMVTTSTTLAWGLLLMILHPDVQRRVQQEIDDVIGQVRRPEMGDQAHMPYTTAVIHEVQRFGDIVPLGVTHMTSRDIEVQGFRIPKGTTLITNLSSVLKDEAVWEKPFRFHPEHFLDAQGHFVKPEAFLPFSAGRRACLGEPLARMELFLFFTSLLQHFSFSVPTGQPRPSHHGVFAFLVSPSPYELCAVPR
# HCT116 cells = experiment: MTT cell viability assay; type: cell-based, human; conditions: for cytotoxic effect (cell viability): HCT116, 20 and 40 µM, 24 h, Figure 2B
# Procedure: (§1) The HT29 and HCT116 cells (human colon cancer), AGS (human gastric cancer), and MIA PaCa-2 cells (human pancreatic cancer) were purchased from Korean Cell Line Bank (Seoul, Korea). Cancer cells were maintained in RPMI (HT29 and AGS) and DMEM (HCT116 and MIA PaCa-2) culture media supplemented with 10% fetal bovine serum (FBS) and 100 U/mL penicillin and streptomycin at 37 °C in a 95% humidified incubator containing 5% CO2. The cytotoxic effect of the compounds was assessed using the MTT cell viability assay. Briefly, 3 × 10^3 cells/well were grown in 96-well plates for 24 h. After treatment with desired concentration of respective compounds for 24 h or 48 h, the EZ-CYTOTOX (10 µM) reagent was added in each well and incubated for 90 min. The absorbance was measured at 450 nm wavelength using Skanlt software 5.0 (Thermo Scientific, Waltham, MA, USA) installed on a Multiskan GO (Thermo Scientific, Waltham, MA, USA) spectrophotometer. Each experiment was independently repeated three times (n = 12).
# HT29 cells [6] = experiment: MTT cell viability assay; type: cell-based, human; conditions: HT29, 20 and 40 µM, 24 h, Figure 2A
# Procedure: as §1
# SK2 = conditions: Figure 1, cited from earlier work; for IC50: known compounds
# SK1 = conditions: known compounds, Figure 1; cited from earlier work
# [7] = % remaining after 30 min, NADPH
compound,measurement,setting,value
"O=S(=O)(Oc1ccc(CCN2CCC[C@@H]2CO)cc1)c1ccccc1 [Compound 11, (R)-4-(2-(2-(Hydroxymethyl)pyrrolidin-1-yl)ethyl)phenyl benzenesulfonate]",apoptosis (annexin V assay),HT29 cells [1],did not significantly induce apoptosis
same,SK1 inhibitory effect,SK1 enzyme,three-fold higher SK1 inhibitory effect than RB005
same,selectivity to SK1 (over SK2),SK1 enzyme,more selectivity than RB005
same,PP2A activity (activation),PP2A in HCT116 cells,no effect on PP2A activation; also recorded: did not increase PP2A activity
same,phosphorylation of AKT and ERK,[2],did not decrease phosphorylation of AKT and ERK
CC(=O)N1CCN(c2ccc(OCC3COC(Cn4ccnc4)(c4ccc(Cl)cc4Cl)O3)cc2)CC1 (stereo not shown) [Ketoconazole],CYP1A2 activity (% of control activity),CYP1A2,>100%
same,CYP2C9 activity (% of control activity),CYP2C9,>100%
same,CYP2C19 activity (% of control activity),CYP2C19,>100%
Cc1cc(CS(=O)(=O)c2ccccc2)cc(OCc2ccc(CN3CCC[C@@H]3CO)cc2)c1 [PF-543],"liver microsomal stability, Rat (%)",[3]; [7],8.1%
same,liver microsomal stability (in words),[3]; rat,unstable
same,"liver microsomal stability, Mouse (%)",[4]; [7],6.5%
same,liver microsomal stability (in words),[4]; mouse,unstable
same,"liver microsomal stability, Human (%)","[5]; % remaining after 30 min, 0.5 mg/mL microsomes, NADPH",13.5%
same,liver microsomal stability (in words),[5]; human,unstable
same,CYP1A2 activity (% of control activity),CYP1A2,80.9%
same,CYP2D6 activity (% of control activity),CYP2D6,63.9%
"CCCCCCCOc1ccc(CCN2CCC(C)CC2)cc1 [Compound 7, 1-(4-(Heptyloxy)phenethyl)-4-methylpiperidine]",cytotoxic effect (cell viability),HCT116 cells,significant cytotoxic effects in both 20 and 40 µM concentrations
"CCCCCCCOc1ccc(CCN2CCC[C@@H]2CO)cc1 [Compound 1, (R)-(1-(4-(Heptyloxy)phenethyl)pyrrolidin-2-yl)methanol]",cytotoxic effect (cell viability),HCT116 cells,significant cytotoxic effects in both 20 and 40 µM concentrations
same,cytotoxic effect (cell viability),HT29 cells [6],more cytotoxic than RB005 and 5-FU
same,SK1 inhibitory effect,SK1 enzyme,highest SK1 inhibitory effect
"O=S(=O)(Oc1ccc(CCN2CCC(O)CC2)cc1)c1ccccc1 [Compound 13, 4-(2-(4-Hydroxypiperidin-1-yl)ethyl)phenyl benzenesulfonate]",apoptosis (annexin V assay),HT29 cells [1],did not significantly induce apoptosis
same,selectivity to SK1 (over SK2),SK1 enzyme,more selectivity than RB005
same,PP2A activity (activation),PP2A in HCT116 cells,no effect on PP2A activation; also recorded: did not increase PP2A activity
same,phosphorylation of AKT and ERK,[2],did not decrease phosphorylation of AKT and ERK
CCCCCCCCOc1ccc(-c2noc([C@@H]3CCCN3C(=N)N)n2)cc1C(F)(F)F [SLM6041434],Ki,SK2; known compound,0.4 to 1.1 µM
"CCCCCCCOc1ccc(CCN2CCCC(CO)C2)cc1 (stereo not shown) [Compound 8, (1-(4-(Heptyloxy)phenethyl)piperidin-3-yl)methanol]",cytotoxic effect (cell viability),HCT116 cells,significant cytotoxic effects in both 20 and 40 µM concentrations
same,cytotoxic effect (cell viability),HT29 cells [6],more cytotoxic than RB005 and 5-FU
CCCCOc1ccc(CCC=C2SC(=O)N(CCN)C2=O)cc1 [Compound K145],IC50,SK1,> 10 µM
same,IC50,SK2,4.3 µM
"CCCCCCCOc1ccc(CCN2CCC(CO)CC2)cc1 [Compound 6, (1-(4-(Heptyloxy)phenethyl)piperidin-4-yl)methanol]",cytotoxic effect (cell viability),HCT116 cells,significant cytotoxic effects in both 20 and 40 µM concentrations
same,cytotoxic effect (cell viability),HT29 cells [6],more cytotoxic than RB005 and 5-FU
"CCCCCCCOc1ccc(CCN2CCNCC2)cc1 [Compound 9, 1-(4-(Heptyloxy)phenethyl)piperazine]",cytotoxic effect (cell viability),HCT116 cells,"only 40 µM concentration of compounds 3, 5 and 9 shows significant cytotoxic effect"
same,cytotoxic effect (cell viability),HT29 cells [6],more cytotoxic than RB005 and 5-FU
O=C(NCc1ccncc1)C12CC3CC(C1)CC(c1ccc(Cl)cc1)(C3)C2 [ABC294640],IC50,SK1,> 100 µM
same,IC50,SK2,~60 µM
"CCCCCCCOc1ccc(CCN2CCC[C@H]2CO)cc1 [Compound 5, (S)-(1-(4-(Heptyloxy)phenethyl)pyrrolidin-2-yl)methanol]",cytotoxic effect (cell viability),HCT116 cells,"only 40 µM concentration of compounds 3, 5 and 9 shows significant cytotoxic effect"
"CCCCCCCOc1ccc(CCN2CCCCC2)cc1 [Compound 2, 1-(4-(Heptyloxy)phenethyl)piperidine]",cytotoxic effect (cell viability),HCT116 cells,significant cytotoxic effects in both 20 and 40 µM concentrations
same,cytotoxic effect (cell viability),HT29 cells [6],more cytotoxic than RB005 and 5-FU
"CCCCCCCCc1ccc(CCN2CCC(O)CC2)cc1 [RB005, reference compound]","cytotoxic effect, comparison","HCT116 cells; HCT116, 10, 20 and 40 µM, Supplementary Figure S1C","higher than compounds 11, 13, and PF-543"
same,PP2A activity increase,"PP2A in HCT116 cells; HCT116, 24 h, 20 µM of compounds 10, 11 and 13, vs nontreated control cells",1.59 fold
